Experimental data from the NIST ThermoML archive (doi:10.1016/j.jct.2019.03.040).

Legend:
[1] = molar heat capacity at constant pressure; conditions: 101.33 kPa, Liquid, Small sample (50 mg) DSC
[2] = Liquid; for thermal diffusivity: 101.33 kPa, Laser flash apparatus

COC(=O)CCC(C)=O [methyl levulinate]
Conditions | Critical pressure [kPa] | Critical temperature [K] | molar heat capacity at constant pressure [J/K/mol] | thermal diffusivity [m2/s]
[1], 302.68 K | – | – | 258.85 | –
[1], 303.18 K | – | – | 259.11 | –
[1], 303.68 K | – | – | 258.98 | –
[1], 304.18 K | – | – | 259.24 | –
[1], 304.68 K | – | – | 258.98 | –
[1], 305.18 K | – | – | 258.72 | –
[1], 305.68 K | – | – | 259.11 | –
[1], 306.18 K | – | – | 258.85 | –
[1], 306.68 K | – | – | 258.98 | –
[1], 307.18 K | – | – | 259.5 | –
[1], 307.68 K | – | – | 259.63 | –
[1], 308.18 K | – | – | 259.89 | –
[1], 308.68 K | – | – | 260.15 | –
[1], 309.18 K | – | – | 259.89 | –
[1], 309.68 K | – | – | 259.63 | –
[1], 310.18 K | – | – | 259.76 | –
[1], 310.68 K | – | – | 259.37 | –
[1], 311.18 K | – | – | 259.37 | –
[1], 311.68 K | – | – | 259.5 | –
[1], 312.18 K | – | – | 259.76 | –
[1], 312.68 K | – | – | 259.89 | –
[1], 313.18 K | – | – | 259.76 | –
[1], 313.68 K | – | – | 260.15 | –
[1], 314.18 K | – | – | 260.02 | –
[1], 314.68 K | – | – | 260.54 | –
[1], 315.18 K | – | – | 260.15 | –
[1], 315.68 K | – | – | 260.02 | –
[1], 316.18 K | – | – | 259.89 | –
[1], 316.68 K | – | – | 260.8 | –
[1], 317.18 K | – | – | 260.93 | –
[1], 317.68 K | – | – | 260.8 | –
[1], 318.18 K | – | – | 261.06 | –
[1], 318.68 K | – | – | 261.06 | –
[1], 319.18 K | – | – | 261.19 | –
[1], 319.68 K | – | – | 261.06 | –
[1], 320.18 K | – | – | 260.93 | –
[1], 320.68 K | – | – | 261.06 | –
[1], 321.18 K | – | – | 261.19 | –
[1], 321.68 K | – | – | 261.32 | –
[1], 322.18 K | – | – | 261.06 | –
[1], 322.68 K | – | – | 260.8 | –
[1], 323.18 K | – | – | 261.32 | –
[1], 323.68 K | – | – | 261.32 | –
[1], 324.18 K | – | – | 261.45 | –
[1], 324.68 K | – | – | 261.72 | –
[1], 325.18 K | – | – | 261.59 | –
[1], 325.68 K | – | – | 261.85 | –
[1], 326.18 K | – | – | 261.98 | –
[1], 326.68 K | – | – | 262.11 | –
[1], 327.18 K | – | – | 262.11 | –
[1], 327.68 K | – | – | 262.24 | –
[1], 328.18 K | – | – | 262.37 | –
[1], 328.68 K | – | – | 262.63 | –
[1], 329.18 K | – | – | 262.76 | –
[1], 329.68 K | – | – | 262.63 | –
[1], 330.18 K | – | – | 262.63 | –
[1], 330.68 K | – | – | 263.02 | –
[1], 331.18 K | – | – | 263.15 | –
[1], 331.68 K | – | – | 263.15 | –
[1], 332.18 K | – | – | 263.93 | –
[1], 332.68 K | – | – | 263.8 | –
[1], 333.18 K | – | – | 264.06 | –
[1], 333.68 K | – | – | 263.93 | –
[1], 334.18 K | – | – | 264.06 | –
[1], 334.68 K | – | – | 264.45 | –
[1], 335.18 K | – | – | 264.45 | –
[1], 335.68 K | – | – | 264.19 | –
[1], 336.18 K | – | – | 264.19 | –
[1], 336.68 K | – | – | 264.58 | –
[1], 337.18 K | – | – | 264.45 | –
[1], 337.68 K | – | – | 264.32 | –
[1], 338.18 K | – | – | 264.45 | –
[1], 338.68 K | – | – | 264.45 | –
[1], 339.18 K | – | – | 265.1 | –
[1], 339.68 K | – | – | 265.36 | –
[1], 340.18 K | – | – | 264.97 | –
[1], 340.68 K | – | – | 264.84 | –
[1], 341.18 K | – | – | 264.97 | –
[1], 341.68 K | – | – | 265.49 | –
[1], 342.18 K | – | – | 265.49 | –
[1], 342.68 K | – | – | 265.62 | –
[1], 343.18 K | – | – | 265.75 | –
[1], 343.68 K | – | – | 266.01 | –
[1], 344.18 K | – | – | 266.4 | –
[1], 344.68 K | – | – | 266.27 | –
[1], 345.18 K | – | – | 266.27 | –
[1], 345.68 K | – | – | 266.4 | –
[1], 346.18 K | – | – | 266.79 | –
[1], 346.68 K | – | – | 266.4 | –
[1], 347.18 K | – | – | 266.79 | –
[1], 347.68 K | – | – | 266.66 | –
[1], 348.18 K | – | – | 266.92 | –
[1], 348.68 K | – | – | 267.31 | –
[1], 349.18 K | – | – | 266.92 | –
[1], 349.68 K | – | – | 267.18 | –
[1], 350.18 K | – | – | 267.7 | –
[1], 350.68 K | – | – | 267.7 | –
[1], 351.18 K | – | – | 268.09 | –
[1], 351.68 K | – | – | 268.09 | –
[1], 352.18 K | – | – | 267.96 | –
[1], 352.68 K | – | – | 268.48 | –
[1], 353.18 K | – | – | 268.61 | –
[1], 353.68 K | – | – | 268.61 | –
[1], 354.18 K | – | – | 268.48 | –
[1], 354.68 K | – | – | 268.48 | –
[1], 355.18 K | – | – | 268.87 | –
[1], 355.68 K | – | – | 268.87 | –
[1], 356.18 K | – | – | 268.87 | –
[1], 356.68 K | – | – | 269.13 | –
[1], 357.18 K | – | – | 269.39 | –
[1], 357.68 K | – | – | 269.78 | –
[1], 358.18 K | – | – | 269.91 | –
[1], 358.68 K | – | – | 269.65 | –
[1], 359.18 K | – | – | 270.17 | –
[1], 359.68 K | – | – | 270.3 | –
[1], 360.18 K | – | – | 270.56 | –
[1], 360.68 K | – | – | 270.83 | –
[1], 361.18 K | – | – | 270.96 | –
[1], 361.68 K | – | – | 270.56 | –
[1], 362.18 K | – | – | 270.56 | –
[1], 362.68 K | – | – | 270.56 | –
[1], 363.18 K | – | – | 271.09 | –
[1], 363.68 K | – | – | 270.96 | –
[1], 364.18 K | – | – | 271.22 | –
[1], 364.68 K | – | – | 271.48 | –
[1], 365.18 K | – | – | 271.74 | –
[1], 365.68 K | – | – | 271.74 | –
[1], 366.18 K | – | – | 271.87 | –
[1], 366.68 K | – | – | 271.87 | –
[1], 367.18 K | – | – | 271.87 | –
[1], 367.68 K | – | – | 272.39 | –
[1], 368.18 K | – | – | 272.52 | –
[1], 368.68 K | – | – | 272.65 | –
[1], 369.18 K | – | – | 273.04 | –
[1], 369.68 K | – | – | 273.04 | –
[1], 370.18 K | – | – | 272.78 | –
[1], 370.68 K | – | – | 272.91 | –
[1], 371.18 K | – | – | 273.3 | –
[1], 371.68 K | – | – | 273.56 | –
[1], 372.18 K | – | – | 273.56 | –
[1], 372.68 K | – | – | 273.56 | –
[1], 373.18 K | – | – | 273.82 | –
[1], 373.68 K | – | – | 273.69 | –
[2], 303.15 K | – | – | – | 8e-08
[2], 313.15 K | – | – | – | 7.9e-08
[2], 323.15 K | – | – | – | 7.85e-08
[2], 333.15 K | – | – | – | 7.7e-08
[2], 343.15 K | – | – | – | 7.6e-08
[2], 353.15 K | – | – | – | 7.5e-08
[2], 363.15 K | – | – | – | 7.35e-08
[2], 373.15 K | – | – | – | 7.25e-08
[2], Resistive pulse heating | 3270 | 668 | – | –
